Measurements reported in patent publication US20240216476A1, “COMBINATION OF BITTER RECEPTOR AGONIST AND GUT-SIGNALING COMPOUND” (AARDVARK THERAPEUTICS, INC., priority 2021, published 2024).
Where two headings read alike, the source gives them in different places. Marks after values point to notes of the source that are not given here.

Tests used:
NASH in vivo models [1] = experiment: NASH in vivo models, summary and comparison of data from multiple studies (Table 15; first row Aardvark Therapeutics, PCT/US2022/014550); conditions: Male C57BL/6 mice fed AMLN diet for 48 weeks; 30 mg/kg, PO, QD for 48 weeks
Description: FIGS. 23 through 33B show data from this Example 6, which is further described above under the heading, Brief Description of the Figures. A summary and comparison of NASH in vivo data from multiple studies is shown below in Table 15. [table] […] This makes it difficult to do direct comparisons of the data. The study corresponding to the first row (called Aardvark Therapeutics) is provided in PCT Patent application PCT/US2022/014550, filed Jan. 31, 2022.

[2] = system: C57Bl/6J mice fed with high-fat diet; conditions: vildagliptin 30 mg/kg/day 7 weeks, alogliptin 0.03% (wt/wt) in diet for life span, cited from earlier work
[3] = cited from earlier work; for Effect on Body Weight (placebo-adjusted change from baseline) / Effect on HbA1c (placebo-adjusted change from baseline) / Effect on Body Weight (placebo-adjusted change from baseline), percent: QD 24-26 weeks; for TC level change from baseline / LDL level change from baseline: placebo +2%; for HDL level change from baseline: placebo +1%
ob/ob mice = conditions: cited from earlier work
[4] = side effect incidence; cited from earlier work
[5] = in vivo; cited from earlier work
C57BL/6 mice fed on HFD = conditions: end of study, cited from earlier work
[6] = cited from earlier work; for percentage of patients in whom NASH resolution was achieved with no worsening of fibrosis: placebo 17%
NASH in vivo models [7] = conditions: Male C57BL/6J mice fed AMLN diet for 32 weeks, 10 nmol/kg, SC for 12 weeks, cited from earlier work
[8] = system: AMLN-diet induced mice (fatty liver disease/NASH model); assay type: in vivo; conditions: in words
Description: This Example provides the results obtained from an in vivo mouse model of fatty liver disease treatment to investigate the therapeutic effect of DA on the treatment of NASH versus positive control semaglutide (a GLP-1 agonist marketed drug for lowering HbA1c). This study used a positive control semaglutide, a vehicle control, study drug DA and a combination of semaglutide and DA. Mouse strain (B6 mice) was used, and the animals were already adults (23 weeks old) when the study began because the animals were already fed an AMLN diet for 17 weeks prior to the study being initiated. The study dose began at 75 mg/kg BID.
The study included 3 groups of 10 mice each, (A) vehicle control with distilled water by gavage BID, (B) DA by gavage BID, and (C) semaglutide […] sc QD. Body weights and changes were measured 3× per week. Serum metabolic markers (blood glucose, blood insulin, HbA1c, HDL, LDL triglycerides and bile acids) were measured at beginning of dosing (baseline) and end of study. At the end of the study, histopathology of liver samples and serum levels of inflammatory biomarkers (IL-6, TNFα, CK-18 and TGF-β) were evaluated. Histopathology was performed blindly with a scoring scale according to NAFLD Activity Score and Fibrosis Score according to Table 13. Table 14 identifies the kits and equipment used to measure serum parameters.

[9] = sitagliptin 0.004% in diet 12 weeks
[10] = semaglutide 3 mg, sitagliptin 100 mg, saxagliptin 2.5 mg, vildagliptin 50 mg, alogliptin 12.5 mg, linagliptin 5 mg
[11] = semaglutide 3 mg, sitagliptin 100 mg, saxagliptin 2.5 mg, vildagliptin 50 mg
[12] = semaglutide 7 mg, sitagliptin 200 mg, saxagliptin 5 mg, vildagliptin 100 mg, alogliptin 25 mg
[13] = semaglutide 7 mg, sitagliptin 200 mg, saxagliptin 5 mg, vildagliptin 100 mg
[14] = vildagliptin 1.9 mg/kg BID 33 days
[15] = vildagliptin 6.3 mg/kg BID 33 days
[16] = exenatide 24 nmol/kg QD IP 4 weeks, dulaglutide 0.6 mg/kg once weekly IP 12 weeks, liraglutide 0.3 mg/kg QD SC 38 days
[17] = exenatide 24 nmol/kg QD IP 4 weeks, dulaglutide 0.6 mg/kg once weekly IP 12 weeks, liraglutide 0.3 mg/kg QD SC 38 days, semaglutide 25 nmol/kg every two days SC 3 weeks
[18] = semaglutide 14 mg, saxagliptin 10 mg
[19] = exenatide 24 nmol/kg QD IP 4 weeks, semaglutide 25 nmol/kg every two days SC 3 weeks
[20] = semaglutide 25 nmol/kg every two days SC 3 weeks

CC(=O)[O-].CC[N+](CC)(CC(=O)Nc1c(C)cccc1C)Cc1ccccc1 [DA or ARD-101]
serum level of ALT, change (NASH in vivo models [1]): ALT (−43%), AST | serum level of AST, change (NASH in vivo models [1]): (−9.5%), and bile acid | serum level of HbAlc, change (NASH in vivo models [1]): −6.7% | serum level of bile acid, change (NASH in vivo models [1]): (−16.2%) | serum level of fasting glucose, change (NASH in vivo models [1]): −9% | serum levels of GLP-1 and GLP-2 (NASH in vivo models [1]): Increased serum levels | serum levels of inflammatory markers (NASH in vivo models [1]): Lowered serum levels | steatosis and fibrosis on histopathology (NASH in vivo models [1]): Significantly improved

N#C[C@@H]1CCCN1C(=O)CNC12CC3CC(CC(O)(C3)C1)C2 [Vildagliptin]
Control-adjusted Percent Change in Body Weight Gain [2, 9]: +11% | Control-adjusted Percent Change in Fasting Blood Glucose [2, 9]: −15.1%* | Control-adjusted Percent Change in Insulin Level [2, 9]: −33.2% | Control-adjusted Percent Change in Lipid Levels: TC [2]: −51.5% in TC* | Control-adjusted Percent Change in Lipid Levels: TG [2]: −23.6% in TG** | Effect on Body Weight (placebo-adjusted change from baseline) [3, 10]: 50 mg: +0.6 kg | Effect on HbA1c (placebo-adjusted change from baseline) [3, 10]: 50 mg: −0.7% | Effect on Body Weight (placebo-adjusted change from baseline), percent [3, 11]: (+0.65%) | Effect on Body Weight (placebo-adjusted change from baseline) [3, 12]: 100 mg: +1.2 kg | Effect on HbA1c (placebo-adjusted change from baseline) [3, 12]: 100 mg: −1.1% | Effect on Body Weight (placebo-adjusted change from baseline), percent [3, 13]: (+1.3%) | TG level change from baseline ([3]; vildagliptin 50 mg QD 24 weeks, placebo +19%): from baseline: +1% | TG level change from baseline ([3]; vildagliptin 100 mg QD 24 weeks, placebo +19%): (50 mg) ^$ and +5% | Other lipid parameters, change ([3]; vildagliptin, all treatment groups, no significant between-treatment differences): changed by <3% | Control-adjusted Percent Change in Fasting Blood Glucose (ob/ob mice; [14]): −29.4% | Control-adjusted Percent Change in TG Level (ob/ob mice; [14]): −29.3% | Control-adjusted Percent Change in Fasting Blood Glucose (ob/ob mice; [15]): −40.2% | Control-adjusted Percent Change in TG Level (ob/ob mice; [15]): −19.9%

CC[C@H](C)[C@H](NC(=O)[C@H](Cc1ccccc1)NC(=O)[C@H](CC(=O)O)NC(=O)[C@H](CCCNC(=N)N)NC(=O)[C@H](C)NC(=O)[C@H](C)NC(=O)[C@H](CC(C)C)NC(=O)[C@H](CC(N)=O)NC(=O)[C@H](CC(=O)O)NC(=O)[C@H](CC(C)C)NC(=O)[C@@H](NC(=O)[C@@H](NC(=O)[C@H](CC(N)=O)NC(=O)[C@H](CCSC)NC(=O)[C@H](CCC(=O)O)NC(=O)[C@H](CC(=O)O)NC(=O)[C@H](CO)NC(=O)[C@H](Cc1ccccc1)NC(=O)[C@H](CO)NC(=O)CNC(=O)[C@H](CC(=O)O)NC(=O)CNC(=O)[C@@H](N)Cc1c[nH]cn1)[C@@H](C)O)[C@@H](C)CC)C(=O)N[C@@H](CC(N)=O)C(=O)N[C@@H](Cc1c[nH]c2ccccc12)C(=O)N[C@@H](CC(C)C)C(=O)N[C@H](C(=O)N[C@@H](CCC(N)=O)C(=O)N[C@H](C(=O)N[C@@H](CCCCN)C(=O)N[C@H](C(=O)N[C@H](C(=O)N[C@@H](CC(=O)O)C(=O)O)[C@@H](C)O)[C@@H](C)CC)[C@@H](C)O)[C@@H](C)CC [teduglutide]
injection site reaction [4]: 13% | intestinal stoma complication [4]: 42% | upper respiratory tract infection [4]: 21%

Dulaglutide: fusion protein GLP-1 receptor agonist
Incidence of Hypoglycemic Episodes for Combination with Insulin (vs. Placebo) [5]: 14.7%* | Incidence of Hypoglycemic Episodes for Combination with Metformin (vs. Placebo) [5]: 0.7% | Incidence of Hypoglycemic Episodes for Combination with a Sulfonylurea (vs. Placebo) [5]: 3.3% | Control-adjusted Percent Change in Insulin Level (C57BL/6 mice fed on HFD; dulaglutide 0.6 mg/kg once weekly IP 12 weeks, liraglutide 0.3 mg/kg QD SC 38 days): −77%* | Control-adjusted Body Weight Gain (C57BL/6 mice fed on HFD; [16]): -8.1 g | Control-adjusted Percent Change in Body Weight (C57BL/6 mice fed on HFD; [16]): −15.9%* | Control-adjusted Percent Change in Fasting Blood Glucose (C57BL/6 mice fed on HFD; [17]): −16.3%*

Semaglutide
percentage of patients in whom NASH resolution was achieved with no worsening of fibrosis ([6]; 0.1-mg group): 40% | percentage of patients in whom NASH resolution was achieved with no worsening of fibrosis ([6]; 0.2-mg group): 36% | mean percent weight loss ([6]; 0.4-mg group, placebo 1%): 13% | percentage of patients in whom NASH resolution was achieved with no worsening of fibrosis ([6]; 0.4-mg group): 59% | incidence of constipation ([6]; human, in vivo): 22% | incidence of nausea ([6]; human, in vivo): 42% | incidence of vomiting ([6]; human, in vivo): 15% | patients with malignant neoplasms ([6]; human, in vivo): 1% | patients with neoplasms (benign, malignant, or unspecified) ([6]; human, in vivo): 15% | liver TG and total cholesterol levels, plasma ALT level, and liver content of fibrosis markers (NASH in vivo models [7]): Significantly decreased | liver weight and NAS overall score (NASH in vivo models [7]; significant): decreased liver weight | Incidence of Hypoglycemic Episodes for Combination with Insulin (vs. Placebo) [5]: 29.8%* | Incidence of Hypoglycemic Episodes for Monotherapy at the Highest Dose (vs. Placebo) [5]: 3.8% | NAFLD Activity Score based on blinded histopathologic review ([8]; 12 weeks, DA 75 then 50 mg/kg BID by gavage, semaglutide 10 mmol/kg sc QD): significantly improved NAFLD Activity Score | body weight and body weight change ([8]; 12 weeks, DA 75 then 50 mg/kg BID, semaglutide 10 mmol/kg sc QD): remarkable effect on body weight | HDLs ([8]; end of study): significantly decreased | LDLs ([8]; end of study): significantly decreased | TGs ([8]; end of study): significantly decreased | TC level change from baseline ([3]; oral semaglutide 3 mg, 26-week trial product estimate from another clinical trial): from baseline: −3% | HDL level change from baseline ([3]; oral semaglutide 3 mg, 26-week): from baseline: 0% | LDL level change from baseline ([3]; oral semaglutide 3 mg, 26-week): from baseline: −4% | TG level change from baseline ([3]; oral semaglutide 3 mg, 26-week, placebo −2%): from baseline: −5% | HDL level change from baseline ([3]; oral semaglutide 7 mg, 26-week): (3 mg), −2% | LDL level change from baseline ([3]; oral semaglutide 7 mg, 26-week): (3 mg) ^$, −6% | TC level change from baseline ([3]; oral semaglutide 7 mg, 26-week): (3 mg) ^$$ −5% | TG level change from baseline ([3]; oral semaglutide 7 mg, 26-week, placebo −2%): (3 mg), −9% | Effect on Body Weight (placebo-adjusted change from baseline) [3, 10]: 3 mg: −0.2 kg | Effect on HbA1c (placebo-adjusted change from baseline) [3, 10]: 3 mg: −0.7% | Effect on Body Weight (placebo-adjusted change from baseline), percent [3, 11]: (−0.23%) | Effect on Body Weight (placebo-adjusted change from baseline) [3, 12]: 7 mg: −1.0 kg | Effect on HbA1c (placebo-adjusted change from baseline) [3, 12]: 7 mg: −1.2% | Effect on Body Weight (placebo-adjusted change from baseline), percent [3, 13]: (−1.1%) | Effect on Body Weight (placebo-adjusted change from baseline) [3, 18]: 14 mg: −2.6 kg | Effect on Body Weight (placebo-adjusted change from baseline), percent [3, 18]: (−3.0%) | Effect on HbA1c (placebo-adjusted change from baseline) [3, 18]: 14 mg: −1.4% | Control-adjusted Percent Change in Fasting Blood Glucose (C57BL/6 mice fed on HFD; [17]): −12.8%*** | Control-adjusted Percent Change in Lipid Levels: TC (C57BL/6 mice fed on HFD; [19]): TC: −16.7%** | Control-adjusted Percent Change in Lipid Levels: TG (C57BL/6 mice fed on HFD; [19]): TG: −13.8%** | Absolute body weight percent change (C57BL/6 mice fed on HFD; [20]): −13.4%^## | Control-adjusted Percent Change in Lipid Levels: LDL (C57BL/6 mice fed on HFD; [20]): LDL: −9.3%*
